Values joined by “and” are separate entries in the source; they are usually repeats but may differ in a detail not shown here. Identical values can stand only once. Toxic doses and inconclusive results are not listed. Cut-off read from the data, not from the text of the source: active = T/C of 150% or more; inactive = T/C below 125%.
Test system: L1210 leukemia ip in BDF1 mice, survival T/C
Test: NCI In Vivo Anticancer Drug Screen. Data for tumor model L1210 Leukemia (intraperitoneal) in B6D2F1 (BDF1) mice
Conditions: endpoint: mean survival time, higher = longer survival
How it was run: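 Each compound was tested against a transplantable tumor grown in mice. The endpoint was survival, with treated animals benchmarked against vehicle controls as a simple ratio.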

[1] = dose: 100.0 mg/kg/injection, schedule: Q01DX009 (ip), vehicle: Klucel (hydroxypropylcellulose) (HPC)
[2] = dose: 100.0 mg/kg/injection, schedule: Q04DX003 (ip), vehicle: Klucel (hydroxypropylcellulose) (HPC)
[3] = dose: 100.0 mg/kg/injection, schedule: Q04DX003 (ip), vehicle: saline
[4] = dose: 200.0 mg/kg/injection, schedule: Q04DX003 (ip), vehicle: saline
[5] = dose: 100.0 mg/kg/injection, schedule: Q04DX003 (ip), vehicle: saline with Tween-80
[6] = dose: 200.0 mg/kg/injection, schedule: Q04DX003 (ip), vehicle: saline with Tween-80

Measured: T/C

CCCCCCC(=O)NC1=C(N2CC2)C(=O)C(NC(=O)CCCCCC)=C(N2CC2)C1=O
inactive: dose: 25.0 mg/kg/injection, schedule: Q01DX009 (ip), vehicle: saline 110 % of control | dose: 45.0 mg/kg/injection, schedule: Q01DX009 (ip), vehicle: other 124 % of control | dose: 50.0 mg/kg/injection, schedule: Q01DX009 (ip), vehicle: saline 122 % of control | dose: 51.0 mg/kg/injection, schedule: Q01DX Z (ip), vehicle: carboxymethylcellulose (CMC) 124 % of control | dose: 51.0 mg/kg/injection, schedule: Q01DX Z (ip), vehicle: methylcellulose (MC) 107 % of control | dose: 65.0 mg/kg/injection, schedule: Q01DX009 (ip), vehicle: other 118 % of control | dose: 66.0 mg/kg/injection, schedule: Q01DX009 (ip), vehicle: Klucel (hydroxypropylcellulose) (HPC) 113 % of control | dose: 76.0 mg/kg/injection, schedule: Q01DX Z (ip), vehicle: methylcellulose (MC) 96 % of control | dose: 100.0 mg/kg/injection, schedule: Q01DX001 (ip), vehicle: other 96 % of control | [1] 101 % of control | dose: 100.0 mg/kg/injection, schedule: Q01DX009 (ip), vehicle: saline 123 % of control | [2] 111 % of control | [3] 103 % of control | dose: 115.0 mg/kg/injection, schedule: Q01DX Z (ip), vehicle: carboxymethylcellulose (CMC) 120 % of control | dose: 150.0 mg/kg/injection, schedule: Q01DX009 (ip), vehicle: Klucel (hydroxypropylcellulose) (HPC) 97 % of control and 99 % of control | dose: 172.5 mg/kg/injection, schedule: Q01DX Z (ip), vehicle: carboxymethylcellulose (CMC) 114 % of control | dose: 200.0 mg/kg/injection, schedule: Q01DX001 (ip), vehicle: other 108 % of control | dose: 200.0 mg/kg/injection, schedule: Q01DX009 (ip), vehicle: other 100 % of control | dose: 200.0 mg/kg/injection, schedule: Q01DX009 (ip), vehicle: saline 94 % of control | [4] 113 % of control | dose: 264.0 mg/kg/injection, schedule: Q04DX003 (ip), vehicle: Klucel (hydroxypropylcellulose) (HPC) 114 % of control | dose: 264.0 mg/kg/injection, schedule: Q04DX003 (ip), vehicle: other 111 % of control | dose: 400.0 mg/kg/injection, schedule: Q01DX001 (ip), vehicle: other 110 % of control | dose: 400.0 mg/kg/injection, schedule: Q04DX003 (ip), vehicle: Klucel (hydroxypropylcellulose) (HPC) 118 % of control

C=C1CC(CCCCCC2CC(=C)C(=O)O2)OC1=O (stereo not given)
inactive: dose: 12.5 mg/kg/injection, schedule: Q04DX002 (ip), vehicle: saline 94 % of control | dose: 25.0 mg/kg/injection, schedule: Q04DX002 (ip), vehicle: saline 94 % of control | dose: 50.0 mg/kg/injection, schedule: Q04DX002 (ip), vehicle: saline 102 % of control

CCCCCCOP1(=O)C=C(C)CC1 (stereo not given)
inactive: [5] 93 % of control | [6] 90 % of control

C(=C/c1ccccc1)/C=C/C(=C/c1ccccc1)c1ccccc1
inactive: [5] 91 % of control | [6] 87 % of control and 96 % of control | dose: 400.0 mg/kg/injection, schedule: Q04DX003 (ip), vehicle: saline with Tween-80 87 % of control and 91 % of control

CN(C)C1C(=O)C(C(=O)NCNC(CCS(C)=O)C(=O)O)=C(O)C2(O)C(=O)C3=C(O)c4c(O)cccc4C(C)(O)C3CC12 (stereo not given)
inactive: dose: 100.0 mg/kg/injection, schedule: Q01DX001 (ip), vehicle: saline 91 % of control | [3] 95 % of control | dose: 200.0 mg/kg/injection, schedule: Q01DX001 (ip), vehicle: saline 91 % of control | [4] 92 % of control | dose: 400.0 mg/kg/injection, schedule: Q01DX001 (ip), vehicle: saline 91 % of control | dose: 400.0 mg/kg/injection, schedule: Q04DX003 (ip), vehicle: saline 87 % of control

CCP1CCC(=NNC(N)=S)CC1 (stereo not given)
inactive: dose: 12.5 mg/kg/injection, schedule: Q04DX002 (ip), vehicle: saline with Tween-80 95 % of control | dose: 25.0 mg/kg/injection, schedule: Q04DX002 (ip), vehicle: saline with Tween-80 95 % of control | dose: 50.0 mg/kg/injection, schedule: Q04DX002 (ip), vehicle: saline with Tween-80 93 % of control

O=C(O)c1ccccc1[N+](=O)[O-]
inactive: dose: 100.0 mg/kg/injection, schedule: Q01DX001 (ip), vehicle: Klucel (hydroxypropylcellulose) (HPC) 99 % of control | dose: 200.0 mg/kg/injection, schedule: Q01DX001 (ip), vehicle: Klucel (hydroxypropylcellulose) (HPC) 97 % of control | dose: 400.0 mg/kg/injection, schedule: Q01DX001 (ip), vehicle: Klucel (hydroxypropylcellulose) (HPC) 96 % of control

O=C1N(Cl)C(=O)C(c2ccccc2)(c2ccc(F)cc2)N1Cl (stereo not given)
inactive: dose: 50.0 mg/kg/injection, schedule: Q01DX009 (ip), vehicle: Klucel (hydroxypropylcellulose) (HPC) 94 % of control | [1] 94 % of control | [2] 96 % of control | dose: 200.0 mg/kg/injection, schedule: Q04DX003 (ip), vehicle: Klucel (hydroxypropylcellulose) (HPC) 94 % of control

C=CCNC(=S)NN
inactive: dose: 6.25 mg/kg/injection, schedule: Q04DX003 (ip), vehicle: Klucel (hydroxypropylcellulose) (HPC) 115 % of control | dose: 12.5 mg/kg/injection, schedule: Q04DX003 (ip), vehicle: Klucel (hydroxypropylcellulose) (HPC) 95 % of control
